# Laboratory results taken from a melting point compilation (Tetko et al.; mined from patent text by program, amines drawn as free bases though some values may be those of a salt).
row,Compound,melting point [°C]
1,COC(=O)CCC(=O)Nc1ccc2c(=O)n3c(nc2c1)C(=Cc1ccccc1)CC3,288 to 291
2,O=C(Nc1cc(C(F)(F)F)cc(C(F)(F)F)c1)[C@H]1CC=CC[C@H]1C(=O)O (relative stereo),166 to 167
3,Cc1cc(C)c2cccc(OCc3c(Cl)ccc(S(=O)(=O)N4CCC[C@H]4C(=O)NCCCN(C)C(=O)OC(C)(C)C)c3Cl)c2n1,80
4,COc1ccc2c(c1)N(c1ccc(F)cc1)C(=O)C2(C)N (stereo not given),140 to 141
5,COCC(O)=C(N)C(=O)O,186 to 187
6,O=C(Cc1cccc2ccccc12)Nc1cc([C@H]2C[C@@H](NC(=O)c3ccc4ccccc4n3)C2)[nH]n1,200
7,CCOc1cc(=O)oc2cc(CBr)ccc12,150 to 153
8,COc1cc(NC(C)=O)ccc1N1C(=O)C(C)(c2ccccc2Cl)c2cc(Cl)ccc21 (stereo not given),83
9,CCCCC[C@@H](CNC(=O)Nc1c(OCC)ccc2c1CCC2)c1cccc2c1OCO2,108 to 109
10,CCCCOc1c(OC)c(OC)cc(C)c1C(=O)c1c(Cl)cccc1Cl,70
11,CCOC(=O)CC(NC(=O)c1ccc(F)cc1)C(=O)c1ccco1 (stereo not given),95.5 to 97
12,Cc1ccnc2c1N=C(N)c1cccnc1N2C1CC1,242 to 244
13,O=C(/C=C/c1ccc2c(c1)OCCO2)CC(=O)/C=C/c1ccc2c(c1)OCCO2,184 to 187
14,COc1ccc(-c2nc(CNC(=O)C3=NNC(=O)CC3)sc2-c2ccc(OC)cc2)cc1,174 to 175
15,COc1cc(-c2csc3c2OCCO3)c(OC)c2c(OC)cc(-c3csc4c3OCCO4)c(OC)c12,300 to 303
16,CCOC(=O)C1=Cc2cccc(N3CCCC3=O)c2OCC1,64 to 66
17,CCCCNC1NC(=O)N(c2cccc(C(F)(F)F)c2)C(=O)N1,245 to 247
18,CC(Cc1cc(-c2ccccc2)nc2ccccc12)C(=O)O (stereo not given),185
19,O=C(O)c1c(Cl)ccc2cc(C(F)(F)F)c(C(F)(F)F)nc12,108 to 111
20,CS(=O)(=O)c1ccc(Cn2ccc3c4c(N)nc(N)nc4ccc32)cc1,248
21,O=[N+]([O-])c1ccc(NN=C(c2ccccc2)c2ccccc2)c([N+](=O)[O-])c1,232 to 234
22,CCCCCCCSc1ccc(-c2ccc(C#N)cc2)cc1,64.4
23,BrCCCOc1ccc(OCCCBr)cc1,78 to 80
24,C[C@H]1c2onc(-c3ccc(Cl)cc3)c2CCC[C@H]1C(=O)O (relative stereo),149 to 150
25,COC(=O)c1c(C(F)F)nc(C(F)(F)F)c(C(=O)OC)c1O,83 to 84.5

row,Compound,melting point [°C]
1,COc1cc(OC)cc(N(C)S(=O)(=O)c2ccc(C)cc2)c1,110 to 111
2,Cc1[nH]cnc1CSCCNc1[nH]ccc1[N+](=O)[O-],161 to 162
3,CC(=Nc1ccc(O)cc1C)c1ccccc1O,144 to 156
4,CCOC(=O)CCCCc1ccc2c(c1)C[C@@H](NC(=O)OC(C)(C)C)CC2,65 to 67
5,Oc1ncnc2c1c(Nc1ccccc1)nn2Cc1ccccc1,246 to 247
6,O=[N+]([O-])c1ccc(S(=O)(=O)Nc2cccc3c(Cl)c[nH]c23)cc1,200
7,NC(=O)C1C=Cc2ccccc2N1C(=O)c1ccc(F)cc1 (stereo not given),149 to 151
8,CCn1ncc2c(Cl)c3c(nc21)C(O)c1ccccc1CC3 (stereo not given),128 to 130
9,Nc1cc(CO)cc([N+](=O)[O-])c1-c1ccc(O)cc1,158
10,Brc1ccc(-c2cc(-c3cccc(Br)c3)no2)cc1,169
11,CN(C)c1ccc(C(=O)NN=C2C(=O)Nc3ccc(I)cc32)cc1,324
12,Cc1ncccc1C(=O)NCC1CCN(C[C@H]2COc3ccc(Cl)cc3O2)CC1,133 to 136
13,CCOC(=O)c1ccc(NC(=O)C=Cc2ccc(Cl)cc2)cc1,203 to 204
14,Cc1ccc(S(=O)(=O)N2CCC[C@H]2C(=O)N[C@@H](Cc2ccc(OCCN3CCOCC3)cc2)C(=O)O)cc1,99 to 101
15,Cc1n[nH]c2ccc(C3C(C#N)=C(C(F)F)NC(C(F)F)=C3C#N)cc12,289
16,CCC(C#N)(CC)c1nsc2ccc(-n3c(=O)cc(C(F)(F)F)n(C)c3=O)cc12,76 to 78
17,Cn1cc2c3c(c(F)cc2n1)CCC3=O,190 to 192
18,O=C(O)c1ccccc1Oc1ccc2ccccc2c1,139 to 142
19,CN(C)C(=O)n1nc(C(C)(C)C)cc1S(C)(=O)=O,126 to 128
20,CC(Oc1cc(Oc2ccc(C(F)(F)F)cc2Cl)ccc1C#N)C(N)=O (stereo not given),134 to 137
21,Cn1ncc(C(=O)O)c1C(=O)Nc1ccn2nc(-c3cccnc3)nc2c1,> 250
22,CCOC(=O)c1cn(-c2cc(OC)c(F)cc2F)c2c(C)c([N+](=O)[O-])c(F)cc2c1=O,248 to 250
23,Cc1cc(Cc2ccc(Cl)cc2)n(O)c(=O)c1,142
24,O=S(=O)(F)Cc1ccc(F)c(Oc2ccccc2)c1,59.5 to 61.5
25,O=C(O)CCC(=O)N1CCc2cc(S(=O)(=O)N3CCN(c4cccc(Cl)c4)CC3)ccc21,228 to 230
